From publication PMC9090415, “Discovery of small molecule inhibitors of Plasmodium falciparum apicoplast DNA polymerase” (Journal of Enzyme Inhibition and Medicinal Chemistry, 2022)

Molecular target: P. falciparum apicoplast DNA polymerase (Pf-apPOL) (Plasmodium falciparum, UniProt Q8ILY1)
Assay: Fluorescence-based high-throughput DNA polymerase assay (molecular beacon), primary screen and dose-response;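 as to % inhibition ApPOL 90': test concentration in µM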;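 as to % inhibition apPOL 180': test concentration in µM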
Assay type: biochemical
Summary of the method: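 Single-point screening used 10 µM compound with 20 nM polymerase, 20 nM hairpin substrate and 6 µM dNTPs for 90 min at 25 °C. Confirmatory titrations (2.5–80 µM) followed fluorescence at three times, and IC50 was derived from a fit including a cooperativity term n.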

P. falciparum apicoplast DNA polymerase (Pf-apPOL), sequence (Q8ILY1 entry or part of it): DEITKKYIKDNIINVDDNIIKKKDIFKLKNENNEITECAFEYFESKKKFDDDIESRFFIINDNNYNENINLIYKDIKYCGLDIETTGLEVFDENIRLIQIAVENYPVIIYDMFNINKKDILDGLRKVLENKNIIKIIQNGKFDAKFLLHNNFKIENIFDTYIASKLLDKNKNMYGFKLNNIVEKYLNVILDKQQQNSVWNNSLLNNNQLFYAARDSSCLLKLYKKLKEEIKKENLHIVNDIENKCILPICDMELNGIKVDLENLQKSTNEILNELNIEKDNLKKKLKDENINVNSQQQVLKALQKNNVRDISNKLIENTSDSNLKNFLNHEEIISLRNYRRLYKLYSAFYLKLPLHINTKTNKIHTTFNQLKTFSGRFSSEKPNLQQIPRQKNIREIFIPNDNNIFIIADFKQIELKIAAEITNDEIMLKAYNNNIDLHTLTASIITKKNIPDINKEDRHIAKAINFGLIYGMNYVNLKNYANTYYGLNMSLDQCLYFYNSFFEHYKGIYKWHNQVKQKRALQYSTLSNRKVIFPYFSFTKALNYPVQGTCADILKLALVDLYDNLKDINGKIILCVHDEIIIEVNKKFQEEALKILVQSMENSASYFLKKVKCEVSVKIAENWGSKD

## O=C(Nc1c2c(nn1-c1ccccc1)CSC2)c1ccco1 [KU0055213]
DRC-1; concentration 2.5; 10'
  % inhibition Apo pol 10': 28.0848%
DRC-1; concentration 2.5; 90'
  % inhibition Apol 90': 10.2281%
DRC-1; concentration 2.5; 180'
  % inhibition apPOL 180': -1.233%
DRC-1; concentration 5; 10'
  % inhibition Apo pol 10': 39.8975%
DRC-1; concentration 5; 90'
  % inhibition Apol 90': 17.5159%
DRC-1; concentration 5; 180'
  % inhibition apPOL 180': 1.991%
DRC-1; concentration 10; 10'
  % inhibition Apo pol 10': 66.5971%
DRC-1; concentration 10; 90'
  % inhibition Apol 90': 43.2893%
DRC-1; concentration 10; 180'
  % inhibition apPOL 180': 23.4061%
DRC-1; concentration 20; 10'
  % inhibition Apo pol 10': 82.6519%
DRC-1; concentration 20; 90'
  % inhibition Apol 90': 64.6698%
DRC-1; concentration 20; 180'
  % inhibition apPOL 180': 46.0885%
DRC-1; concentration 40; 10'
  % inhibition Apo pol 10': 90.9141%
DRC-1; concentration 40; 90'
  % inhibition Apol 90': 82.7699%
DRC-1; concentration 40; 180'
  % inhibition apPOL 180': 72.6518%
DRC-1; concentration 80 (unit not given); 10'
  % inhibition Apo pol 10': 92.3383%
DRC-1; concentration 80; 90'
  % inhibition Apol 90': 91.2919%
DRC-1; concentration 80; 180'
  % inhibition apPOL 180': 88.3514%
DRC-2; 5'; concentration 2.5
  % inhibition Apo pol 5': 24%
DRC-2; 5'; concentration 5
  % inhibition Apo pol 5': 37%
DRC-2; 5'; concentration 40
  % inhibition Apo pol 5': 59%
DRC-2; 5'; concentration 80
  % inhibition Apo pol 5': 59%
DRC-2; 40'; concentration 20
  % inhibition Apol 40': 59%
DRC-2; 40'; concentration 40
  % inhibition Apol 40': 70%
DRC-2; 90'; concentration 10
  % inhibition ApPOL 90': 37%
DRC-2; 90'; concentration 40
  % inhibition ApPOL 90': 70%
DRC-2; 180'; concentration 10
  % inhibition apPOL 180': 24%
DRC-2; concentration 2.5; 5'
  % inhibition Apo pol 5': 24%
DRC-2; concentration 2.5; 40'
  % inhibition Apol 40': 21%
DRC-2; concentration 2.5; 90'
  % inhibition ApPOL 90': 17%
DRC-2; concentration 2.5; 180'
  % inhibition apPOL 180': 9%
DRC-2; concentration 5; 5'
  % inhibition Apo pol 5': 37%
DRC-2; concentration 5; 40'
  % inhibition Apol 40': 36%
DRC-2; concentration 5; 90'
  % inhibition ApPOL 90': 32%
DRC-2; concentration 5; 180'
  % inhibition apPOL 180': 20%
DRC-2; concentration 10; 5'
  % inhibition Apo pol 5': 44%
DRC-2; concentration 10; 40'
  % inhibition Apol 40': 42%
DRC-2; concentration 10; 90'
  % inhibition ApPOL 90': 37%
DRC-2; concentration 10; 180'
  % inhibition apPOL 180': 24%
DRC-2; concentration 20; 5'
  % inhibition Apo pol 5': 52%
DRC-2; concentration 20; 40'
  % inhibition Apol 40': 59%
DRC-2; concentration 20; 90'
  % inhibition ApPOL 90': 57%
DRC-2; concentration 20; 180'
  % inhibition apPOL 180': 49%
DRC-2; concentration 40; 5'
  % inhibition Apo pol 5': 59%
DRC-2; concentration 40; 40'
  % inhibition Apol 40': 70%
DRC-2; concentration 40; 90'
  % inhibition ApPOL 90': 70%
DRC-2; concentration 40; 180'
  % inhibition apPOL 180': 65%
DRC-2; concentration 80; 5'
  % inhibition Apo pol 5': 59%
DRC-2; concentration 80; 40'
  % inhibition Apol 40': 75%
DRC-2; concentration 80; 90'
  % inhibition ApPOL 90': 77%
DRC-2; concentration 80; 180'
  % inhibition apPOL 180': 78%
Primary screen value of the 186 hits; unit not given; 90 min, 10 µM
  DNA Pol: 50
Primary screen value; head prints only 'DNA Pol'; 90 min, 10 µM
  DNA Pol: 50

## COc1ccc(C)cc1NC(=O)Cn1ccc2c(=O)[nH]ccc21 [Molecule 15]
Supplemental file 2, sheet IC50 nontoxic compounds; Pf-apPOL
  IC50: 7.23 µM

## O=C(Nc1cccc(C(=O)Nc2ccc(S(=O)(=O)[O-])c3cc(S(=O)(=O)[O-])cc(S(=O)(=O)[O-])c23)c1)Nc1cccc(C(=O)Nc2ccc(S(=O)(=O)[O-])c3cc(S(=O)(=O)[O-])cc(S(=O)(=O)[O-])c23)c1.[Na+].[Na+].[Na+].[Na+].[Na+].[Na+] [Molecule 39, O=C(Nc1cccc(c1)C(=O)Nc1ccc(c2c1c(cc(c2)S(=O)(=O)[O-])S(=O)(=O)[O-])S(=O)(=O)[O-])Nc1cccc(c1)C(=O)Nc1ccc(c2c1c(cc(c2)S(=O)(=O)[O-])S(=O)(=O)[O-])S(=O)(=O)[O-].[Na+].[Na+].[Na+].[Na+].[Na+].[Na+]]
'DNA Pol' of the 186 hits list (primary screen result); unit not given; 90 min, 10 µM
  DNA Pol: 94
DRC-1; 10'; concentration 2.5
  % inhibition Apo pol 10': 28.0363%
DRC-1; 10'; concentration 5
  % inhibition Apo pol 10': 43.2303%
DRC-1; 10'; concentration 10
  % inhibition Apo pol 10': 60.7681%
DRC-1; 10'; concentration 20
  % inhibition Apo pol 10': 81.9365%
DRC-1; 10'; concentration 40
  % inhibition Apo pol 10': 96.2832%
DRC-1; 10'; concentration 80
  % inhibition Apo pol 10': 99.222%
DRC-1; 90'; concentration 2.5
  % inhibition Apol 90': -1.332%
DRC-1; 90'; concentration 5
  % inhibition Apol 90': 6.063%
DRC-1; 90'; concentration 10
  % inhibition Apol 90': 22.6686%
DRC-1; 90'; concentration 20
  % inhibition Apol 90': 56.1821%
DRC-1; 90'; concentration 40
  % inhibition Apol 90': 89.9026%
DRC-1; 90'; concentration 80
  % inhibition Apol 90': 98.7402%
DRC-1; 180'; concentration 2.5
  % inhibition apPOL 180': -3.025%
DRC-1; 180'; concentration 5
  % inhibition apPOL 180': 1.181%
DRC-1; 180'; concentration 10
  % inhibition apPOL 180': 16.2132%
DRC-1; 180'; concentration 20
  % inhibition apPOL 180': 51.6229%
DRC-1; 180'; concentration 40
  % inhibition apPOL 180': 87.2271%
DRC-1; 180'; concentration 80
  % inhibition apPOL 180': 98.5627%
DRC-2, 40', concentration 20 (unit not given)
  % inhibition Apol 40': 56%
DRC-2, 90', concentration 20 (unit not given)
  % inhibition ApPOL 90': 56%
DRC-2; 5'; concentration 2.5
  % inhibition Apo pol 5': 12%
DRC-2; 5'; concentration 5
  % inhibition Apo pol 5': 23%
DRC-2; 5'; concentration 10
  % inhibition Apo pol 5': 41%
DRC-2; 5'; concentration 20
  % inhibition Apo pol 5': 52%
DRC-2; 5'; concentration 40
  % inhibition Apo pol 5': 59%
DRC-2; 5'; concentration 80
  % inhibition Apo pol 5': 63%
DRC-2; 40'; concentration 2.5
  % inhibition Apol 40': -11%
DRC-2; 40'; concentration 5
  % inhibition Apol 40': 4.26%
DRC-2; 40'; concentration 10
  % inhibition Apol 40': 29%
DRC-2; 40'; concentration 20
  % inhibition Apol 40': 56%
DRC-2; 40'; concentration 40
  % inhibition Apol 40': 75%
DRC-2; 40'; concentration 80
  % inhibition Apol 40': 79%
DRC-2; 90'; concentration 2.5
  % inhibition ApPOL 90': -13%
DRC-2; 90'; concentration 5
  % inhibition ApPOL 90': 1%
DRC-2; 90'; concentration 10
  % inhibition ApPOL 90': 28%
DRC-2; 90'; concentration 20
  % inhibition ApPOL 90': 56%
DRC-2; 90'; concentration 40
  % inhibition ApPOL 90': 78%
DRC-2; 90'; concentration 80
  % inhibition ApPOL 90': 83%
DRC-2; 180'; concentration 2.5
  % inhibition apPOL 180': -3.36%
DRC-2; 180'; concentration 5
  % inhibition apPOL 180': 7.57%
DRC-2; 180'; concentration 10
  % inhibition apPOL 180': 31%
DRC-2; 180'; concentration 20
  % inhibition apPOL 180': 58%
DRC-2; 180'; concentration 40
  % inhibition apPOL 180': 80%
DRC-2; 180'; concentration 80
  % inhibition apPOL 180': 86%
Primary screen value of the library well; unit not given; 90 min, 10 µM
  DNA Pol: 94
